Target: human OX2R (Homo sapiens (Human), UniProt O43614)
Assay: IPOne (IP-One, Cisbio) orexin receptor agonist assay in CHO cells expressing human OX2R
Details: for Emax: CHO, hOX2R_IP, percentage of mean max effect of a reference compound at 1 uM (100% activity vs Orexin A)
Procedure: Both the OX1R and/or OX2R G-coupled protein receptors (GPCRs) couple through the Gaq signaling pathway, which ultimately promotes calcium mobilization via inositol triphosphate (IP3) production.
In a typical experiment, the OX1 and OX2 receptor agonist activity is determined in accordance with the following general experimental method. Chinese hamster ovary (CHO) cells expressing human OX1R and/or the human OX2R were grown in Iscove's modified DMEM containing glutaMAX®, 1% G418, 100 U/mL penicillin, 100 μg/mL streptomycin and 10% heat-inactivated qualified fetal bovine serum (FBS). […] During this incubation, IP-one detection reagents were prepared (38:1:1 lysis buffer:D2:AB-cryptate reagents).
For each compound, data were fit to a four parameter logistic fit (ActivityBase software) and the EC50 was reported as the inflection point of the resulting curve.

Sequence of human OX2R (O43614 whole entry): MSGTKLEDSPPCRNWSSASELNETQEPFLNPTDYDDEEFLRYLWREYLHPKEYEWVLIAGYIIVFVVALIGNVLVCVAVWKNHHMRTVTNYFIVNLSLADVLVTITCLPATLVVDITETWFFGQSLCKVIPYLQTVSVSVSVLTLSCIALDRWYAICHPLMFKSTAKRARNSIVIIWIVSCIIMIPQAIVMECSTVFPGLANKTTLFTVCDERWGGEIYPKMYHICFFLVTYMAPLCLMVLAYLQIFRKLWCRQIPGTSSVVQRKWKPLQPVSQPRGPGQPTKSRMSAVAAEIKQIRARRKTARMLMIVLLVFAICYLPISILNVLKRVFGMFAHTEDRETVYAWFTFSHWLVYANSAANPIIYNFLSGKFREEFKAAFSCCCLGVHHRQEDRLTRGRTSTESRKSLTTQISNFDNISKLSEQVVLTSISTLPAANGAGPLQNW

Emax [%]	IC50 [nM]	SMILES
102	–	COC(=O)N1[C@H](C)C[C@H](NS(C)(=O)=O)[C@@H]1CO[C@H]1CC[C@@H](c2c(F)ccc(F)c2F)CC1 [Example 28, methyl (2R,3S,5R)-5-methyl-3-(methylsulfonamido)-2-((((1r,4R)-4-(2,3,6-trifluorophenyl)-cyclohexyl)oxy)methyl)pyrro-lidine-1-carboxylate]
102	–	COC(=O)N1[C@H](C)C[C@H](NS(=O)(=O)CF)[C@@H]1CO[C@H]1CC[C@@H](c2ccccc2)CC1 [Example 29, methyl (2R,3S,5R)-3-((fluoromethyl)sulfonamido)-5-methyl-2-((((1r,4R)-4-phenylcyclohexyl)oxy)meth-yl)pyrrolidine-1-carboxylate]
100	–	COC(=O)N1[C@H](C)C[C@H](NS(=O)(=O)N(C)C)[C@@H]1CO[C@@H]1CC[C@H](c2ccccc2)CC1F (stereo partly drawn) [Example 30, methyl (2R,3S,5R)-3-((N,N-dimethylsulfamoyl)amino)-2-((((1R,4S)-2-fluoro-4-phenylcyclohexyl)oxy)methyl)-5-methylpyrrolidine-1-carboxylate]
100	–	COC(=O)N1[C@H](C)C[C@H](NS(=O)(=O)N(C)C)[C@@H]1CO[C@@H]1CC[C@H](c2cccc(F)c2)CC1F (stereo partly drawn) [Example 31, methyl (2R,3S,5R)-3-((N,N-dimethylsulfamoyl)amino)-2-((((1R,4S)-2-fluoro-4-(3-fluorophenyl)cyclohexyl)oxy)methyl)-5-methylpyrrolidine-1-carboxylate]
101	–	COC(=O)N1[C@H](C)C[C@H](NS(=O)(=O)N(C)C)[C@@H]1CO[C@H]1CC[C@@H](c2cc(F)cc(F)c2)CC1 [Example 32, methyl (2R,3S,5R)-2-((((1s,4S)-4-(3,5-difluorophenyl)cyclohexyl)oxy)methyl)-3-((N,N-dimethylsulfamoyl)amino)-5-methylpyrrolidine-1-carboxylate]
92	2150	COC(=O)N1[C@H](C)C[C@H](NS(C)(=O)=O)[C@@H]1COC1CCC(c2ccccc2)CC1OC (stereo partly drawn) [Example 33, methyl (2R,3S,5R)-2-(((2-methoxy-4-phenylcyclohexyl)oxy)methyl)-5-methyl-3-(methylsulfonamido)pyrrolidine-1-carboxylate]
99	37.5	COC(=O)N1[C@H](C)C[C@H](NS(C)(=O)=O)[C@@H]1COC1CCC(c2ccccc2)CC1C (stereo partly drawn) [Example 34, methyl (2R,3S,5R)-5-methyl-2-(((2-methyl-4-phenylcyclohexyl)oxy)methyl)-3-(methylsulfonamido)pyrrolidine-1-carboxylate]
102	12.5	COC(=O)N1[C@H](C)C[C@H](NS(=O)(=O)N(C)C)[C@@H]1CO[C@@H]1CC=C(c2cccc(F)c2)CC1 [Example 35, methyl (2R,3S,5R)-3-((N,N-dimethylsulfamoyl)amino)-2-((((S)-3′-fluoro-2,3,4,5-tetrahydro-[1,1′-biphenyl]-4-yl)oxy)methyl)-5-methylpyrrolidine-1-carboxylate]
99	0.76	COC(=O)N1[C@H](C)C[C@H](NS(=O)(=O)N(C)C)[C@@H]1CO[C@H]1CCC(c2cccc(F)c2)C(O)C1 (stereo partly drawn) [Example 36, methyl (2R,3S,5R)-3-((N,N-dimethylsulfamoyl)amino)-2-((((1S)-4-(3-fluorophenyl)-3-hydroxycyclohexyl)oxy)methyl)-5-methylpyrrolidine-1-carboxylate]
100	7.07	CNS(=O)(=O)N[C@H]1C[C@@H](C)N(C(=O)OC(C)C)[C@H]1COC1CCN(c2ncccn2)CC1 [Example 38, isopropyl (2R,3S,5R)-5-methyl-3-((N-methylsulfamoyl)amino)-2-(((1-(pyrimidin-2-yl)piperidin-4-yl)oxy)methyl)pyrrolidine-1-carboxylate]
101	–	CC(C)OC(=O)N1[C@H](C)C[C@H](NS(=O)(=O)N(C)C)[C@@H]1COC1CCN(c2ncc(F)cn2)CC1 [Example 39, isopropyl (2R,3S,5R)-3-((N,N-dimethylsulfamoyl)amino)-2-(((1-(5-fluoropyrimidin-2-yl)piperidin-4-yl)oxy)methyl)-5-methylpyrrolidine-1-carboxylate]
